Experimental findings from patent US6723302B1, “Model for cell migration and use thereof” (The Research Foundation of State University of New York, priority 1996, dated 2004) are described below.

Assay [1] concerns human adult dermal fibroblasts. The assay is described as follows: Three-dimensional transmigration model (collagen gel into fibrin gel). The format is cell-based. To be noted: for inhibition of transmigration by peptide added to the fibrin gel: transmigration stimulated by PR or PDGF-BB. As for the experimental part:
(§1) Primary cultures of human adult dermal fibroblasts were cultured in Dulbecco's modified Eagle's medium (DMEM, Life Technologies) supplemented with 100 U/ml penicillin and 100 μg/ml streptomycin, 42 mmol/l sodium bicarbonate and 10% fetal bovine serum (FBS, Atlanta Biologicals, Norcross, Ga.) at 37° C. and 5% CO2/95% air in a humidified atmosphere. The cells were used between passages 4 and 12.
(§2) Fibroblast cultures at 80% confluence were harvested by treatment with 0.05% trypsin/0.02% EDTA (ethylenediaminetetraacetic acid). Trypsin was inactivated by addition of soy bean trypsin inhibitor in PBS containing 0.2% BSA. The cells were washed twice with DMEM+10% FBS and resuspended at a concentration of 1×10^6 cells/ml. The fibroblasts were mixed with DMEM (5×), 10% FBS and neutralized collagen (Vitrogen 100, Celtrix Labs., Santa Clara, Calif.). In some experiments, FBS was replaced by 30 ng/ml PDGF-BB and 2% BSA. 0.6 ml aliquots of the cell mixture were added to the wells of a 24-well tissue culture plate, precoated with 2% BSA, and the collagen was allowed to polymerize at 37° C. The final concentration of collagen was 1.8 mg/ml and each gel contained 6×10^4 cells. After two hours incubation, the gels were gently detached from the plastic surface to allow contraction, 0.5 ml DMEM+10% FBS was added, and the gels were incubated overnight at 37° C. in 5% CO2.
Fibrinogen was mixed with DMEM (5×) and 0.5 U/ml thrombin (New York Blood Center, New York, N.Y.) so that the final concentration of fibrinogen was 300 μg/ml. Aliquots of 450 μl were added to the wells of a 24-well plate, and after a 2 hour incubation at 37° C. in 5% CO2, the polymerized gels were dried overnight at room temperature under sterile conditions.
Dried fibrin fibril-coated dishes were washed once with PBS and contracted collagen gels were placed on the surface. Fibrinogen, at a final concentration of 300 μg/ml, was mixed with DMEM (5×) and 1.0 U/ml thrombin. When needed, other supplements, such as growth factors, were added to the mixture. The collagen gels were surrounded with the fibrinogen solution so that the fibrin gel was level with the collagen gel (FIG. 1)
The number of migrated cells was evaluated under a Nikon inverted phase microscope by counting identifiable cell nuclei located outside of the contracted collagen gel, either on the fibrin fibril substrate (two-dimensional model) or within the fibrin gel (three-dimensional model). Each condition was assayed in triplicate and experiments were repeated at least three times.

Assay [2] relates to human adult dermal fibroblasts. The assay is described as follows: Two-dimensional outmigration model (collagen gel onto dried fibrin fibrils). The assay is classed as cell-based. As to conditions: collagen gel surrounded with liquid medium instead of fibrin gel. How it is done: as §1
as §2, with “The final concentration of collagen was 1.8 mg/ml and each gel contained 6×10^4 cells. After two hours incubation, the gels were gently detached from the plastic surface to allow contraction, 0.5 ml DMEM+10% FBS was added, and the gels were incubated overnight at 37° C. in 5% CO2.” left out
The number of migrated cells was evaluated under a Nikon inverted phase microscope by counting identifiable cell nuclei located outside of the contracted collagen gel, either on the fibrin fibril substrate (two-dimensional model) or within the fibrin gel (three-dimensional model). […]

As to `NCCCCCC(=O)O` [ε-ACA, ε-Amino-n-Caproic acid], the “inhibition of transmigration induced by PDGF-BB (protease inhibitors)” value in assay [1] (in words) is on record as “inhibited”. Further, in assay [1] (transmigration induced by PDGF-BB, 500 μg/ml ε-ACA), the “reduction of invasion of the fibrin gel” value is listed as “about 80%”. For the same molecule, in assay [2], the “inhibition of outmigration onto dried fibrin fibrils induced by PDGF-BB” value is “not inhibited”.
In the case of GRGDSP [synthetic RGD peptide], in assay [1], the “inhibition of transmigration by peptide added to the fibrin gel” value is “inhibited”.
Regarding GRGESP [control-peptide], the “inhibition of transmigration by peptide added to the fibrin gel” value in assay [1] is “not”.

B1: PDGF-BB: Recombinant platelet-derived growth factor from ZymoGenetics (protein, UniProt P01127 82-190, looked up)
Platelet-derived growth …: SLGSLTIAEPAMIAECKTRTEVFEISRRLIDRTNANFLVWPPCVEVQRCSGCCNNRNVQCRPTQVQLRPVQVRKIEIVRKKPIFKKATVTLEDHLACKCETVAAARPVT
As to B1, the “induction of transmigration of fibroblasts from the collagen gel into the fibrin gel” value in assay [1] (counted after one day) is listed as “could be induced”.
